Where a name gives a salt, the structure may show the parent alone.
What was measured:
former smokers = conditions: oral; cited from earlier work
[1] = pH of a 1% solution/suspension in water; type: physicochemical; conditions: 10 mg salt in 1 mL water, ultrasound about 5 min, stirred one hour at RT, batch B, 24.3-25.2° C.
Experimental: A mixture of 10 mg salt and 1 mL water was treated about 5 min with ultrasound. Afterwards, the mixture was stirred for one hour at RT followed by pH measurement.

[2] = test system: human airway epithelial cells; conditions: human airway epithelial cells in vitro; cited from earlier work
rats = conditions: cited from earlier work
solubility = type: physicochemical; conditions: free form, in water
[3] = stability (physical stability, stability under light); type: physicochemical; conditions: for stability: free form, under light
β2-adrenoceptor = β2-adrenoceptor (Homo sapiens, UniProt P07550); conditions: cited from earlier work
dissolution rate = type: physicochemical; conditions: compared to the free form
[4] = listed as free form of 7-(2,3-di-p-tolyl-7,8-dihydropyrido[2,3-b]pyrazin-5(6H)-yl)heptanoi

Chain of β2-adrenoceptor (P07550 whole entry, species assumed): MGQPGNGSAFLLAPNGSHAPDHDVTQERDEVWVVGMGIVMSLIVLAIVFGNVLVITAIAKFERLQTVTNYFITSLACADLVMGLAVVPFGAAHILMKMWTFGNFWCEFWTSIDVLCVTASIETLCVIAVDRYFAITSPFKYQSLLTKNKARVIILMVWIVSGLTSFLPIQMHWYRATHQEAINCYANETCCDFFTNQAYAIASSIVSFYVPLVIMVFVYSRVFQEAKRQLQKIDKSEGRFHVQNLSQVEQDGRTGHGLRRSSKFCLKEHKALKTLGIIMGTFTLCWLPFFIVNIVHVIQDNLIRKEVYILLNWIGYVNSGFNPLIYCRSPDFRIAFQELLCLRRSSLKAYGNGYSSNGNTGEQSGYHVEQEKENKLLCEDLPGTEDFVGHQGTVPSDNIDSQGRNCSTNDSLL

Compound: CC#CCC(C)[C@H](O)/C=C/[C@@H]1[C@H]2C/C(=C/CCCC(=O)O)C[C@H]2C[C@H]1O (stereo partly shown) [iloprost]
- endobronchial dysplasia (former smokers): significantly improved

Compound: Cc1ccc(-c2nc3c(nc2-c2ccc(C)cc2)N(CCCCCCC(=O)O)CCC3)cc1 [Example 4, 7-(2,3-di-p-tolyl-7,8-dihydropyrido[2,3-b]pyrazin-5(6H)-yl)heptanoate hydrochloride]
- pH of a 1% solution/suspension in water ([1]; hydrochloride): 2.3

Compound: O=C(O)c1cccc(/C=C2/C[C@@H]3[C@@H](/C=C/[C@@H](O)C4CCCCC4)[C@H](O)C[C@@H]3O2)c1 [Taprostene]
- generation of the CD8+ T cell chemoattractants CXCL9 and CXCL10 [2]: suppressed

Compound: CC#CCC(C)[C@H](O)/C=C/[C@@H]1[C@H]2c3cccc(CCCC(=O)O)c3O[C@H]2C[C@H]1O (mixture of isomers) [Beraprost]
- development of experimental cigarette smoke-induced emphysema (rats): protected

Compound: Cc1ccc(-c2nc3c(nc2-c2ccc(C)cc2)N(CCCCCCC(=O)O)CCC3)cc1 [7-(2,3-di-p-tolyl-7,8-dihydropyrido[2,3-b]pyrazin-5(6H)-yl)heptanoic acid]
- solubility (solubility): poorly soluble in water
- solubility (solubility; [4]): poor solubility
- stability [3]: low stability under light
- stability [3, 4]: poor solubility and stability

Compound: Cc1ccc(-c2nc3c(nc2-c2ccc(C)cc2)N(CCCCCCC(=O)[O-])CCC3)cc1.[Na+] [Example 3, 7-(2,3-di-p-tolyl-7,8-dihydropyrido[2,3-b]pyrazin-5(6H)-yl)heptanoate sodium]
- physical stability [3]: good

Compound: CCc1cc2c(cc1CC)CC(NC[C@H](O)c1ccc(O)c3[nH]c(=O)ccc13)C2 [indacaterol, (R)-5-[2-(5,6-diethyl-indan-2-ylamino)-1-hydroxyethyl]-8-hydroxy-1H-quinolin-2-one]
- duration of action (β2-adrenoceptor): over 24 hours
- onset of action (β2-adrenoceptor): about 10 minutes

Compound: CS(=O)(=O)O.Cc1ccc(-c2nc3c(nc2-c2ccc(C)cc2)N(CCCCCCC(=O)O)CCC3)cc1 [mesylate salt of 7-(2,3-di-p-tolyl-7,8-dihydropyrido[2,3-b]pyrazin-5(6H)-yl)heptanoic acid]
- dissolution rate (dissolution rate): significantly higher dissolution rate compared to the free form

Compound: Cc1ccc(-c2nc3c(nc2-c2ccc(C)cc2)N(CCCCCCC(=O)O)CCC3)cc1 [Example 2, 7-(2,3-di-p-tolyl-7,8-dihydropyrido[2,3-b]pyrazin-5(6H)-yl)heptanoate xinafoate]
- photostability [3]: good
- pH of a 1% solution/suspension in water [1]: 6.46

Compound: Cc1ccc(-c2nc3c(nc2-c2ccc(C)cc2)N(CCCCCCC(=O)O)CCC3)cc1 [Example 1, 7-(2,3-di-p-tolyl-7,8-dihydropyrido[2,3-b]pyrazin-5(6H)-yl)heptanoate sulfate]
- physical stability [3]: good
- pH of a 1% solution/suspension in water ([1]; sulfate): 1.78
